From patent US11160766B2, “Peritoneal therapeutic fluid” (OPTERION Health AG, priority 2015, dated 2021)
Several values for one entry are separate records, joined by “and”; a condition that tells them apart may be missing. Equal values may be shown once.

What was measured:
[1] = tested on: Human peritoneal mesothelial cells (HPMC); test: resazurin cell viability assay on HPMC exposed to PD solutions; type: cell-based; settings: for type of dialysis solution mainly improved: summary of example 4; for effect on cell viability in control medium: Medium control without cytotoxic stress, until Cmax (500 μM); for effect reducing cyto-toxicity of all three tested peritoneal dialysis solutions: Example 2 conclusion, PD solutions #1 to #3; for cell viability on Glucose based and on Icodextrin based PD-Solutions: summary of examples 1 to 4; for improvement of viability of HPMC cells (resazurin to resorufin conversion): Example 3, added 5 minutes in advance, triplicate
Description: (§1) Human peritoneal mesothelial cells (HPMC) were purchased from Zen Bio Inc. and cultured in cell culture flasks using suppliers media. Near confluent HPMC were harvested by trypsinization, seeded into collagen-coated 96-well tissue culture plates (Corning) and allowed to adhere overnight. The medium was changed to twice diluted with dialysis solution for 48 up to 72 hours.
Cell viability was established applying the promega resazurin assay, following the suppliers protocol. Living cells are metabolically active and are able to reduce the non-fluorescent dye resazurin to the strongly-fluorescent dye resorufin. The fluorescence output is proportional to the number of viable cells over a wide concentration range. This also allows the calculation of the proliferation rate for cells capable of consecutive cell division. […] For the dose-response relationship, relative viability was plotted against the test item concentrations.
All assays were conducted in a duplex format using the same cell culture.
Addition of selected BCAs of this invention partially reestablished reszurin to reorufin conversion, which is interpreted as a result of a decreased cytotoxicity, due to the application of the tested BCAs. Compounds were added at 9 dilutions (Cmax=500 μM) together with tested PD solutions or Medium control. Incubation was 48 hours.
Addition of selected BCA resveratrol partially reestablished resazurin to reorufin conversion, in a triplicate assay, which is interpreted as a result of a decreased cytotoxicity, due to the application of the tested BCA. In this series, Resveratrol was added 5 minutes in advance to application of test-solutions, at 9 dilutions (Cmax=500 μM). Incubation was 72 hours.
partially reestablished resazurin to reorufin conversion, or partly re-established intracellular ATP-level, which is interpreted as a result of a decreased cytotoxicity, due to the application of the tested BCA. Test items were tested at 3 replicates per concentration. All assays were conducted in a duplex format using the same cell culture. Incubation was 72 hours.

[2] = tested on: Human peritoneal mesothelial cells (HPMC); test: CTG assay, intra-cellular ATP level in HPMC exposed to PD solution; type: cell-based; settings: Example 4; PD-Solution #4; 72 hours
Description: as §1
In the case of Piceid, the intra-cellular ATP level was determined with the CTG assay. For this, media was completely removed from all wells by aspiration, 60 μl of CTG reagent was added to each well, and incubated for 5 min at RT while softly shaking (50 rpm). Using a Victor3 1420 Multilabel Counter, the emitted luminescence produced in the CTG assay was measured. For the dose-response relationship, absolute luminescence (background subtracted) was related to the negative (medium) control and relative viability values were plotted against the test item concentrations. For the dose-response relationship, absolute luminescence (background subtracted) was related to the negative (medium) control and relative viability values in presence of BCA were plotted against the BCA concentrations.
partially reestablished resazurin to reorufin conversion, or partly re-established intracellular ATP-level, which is interpreted as a result of a decreased cytotoxicity, due to the application of the tested BCA. […]

VEGF = test: peritoneal tissue VEGF (ELISA) in rats after chronic peritoneal dialysis; type: in vivo, Sprague-Dawley rats; settings: for VEGF concentration (pg/mL) in prot. prep., single animals: peritoneal tissue
Description: Animal Studies have been carried out as described in Lee et al. 2012: Peritoneal access ports were inserted in male Sprague-Dawley rats. After one week, rats started to received peritoneal treatment: 10 rats receive once daily 20 ml of Sol #4, 10 rats received 20 ml of Sol #4 with addition of selected BCA (resveratrol), during 2 hour infusions. After 2 to 4 weeks, the abdomen was opened, the peritoneum was recovered and submitted to protein extraction. Tissue VEGF concentration was established by ELISA (Abcam Rat VEGF ELISA Kit, ab100787) on obtained protein preparations (pg/ml).

[3] = concentration (solubility) after stirring at room temperature; type: physicochemical
Description: Concentrations of BCA in the present invention are preferably measured after 1 hour stirring at room temperature (which is preferably 20-23° C., more preferably 22° C.), particularly if the BCA is a polyphenolic compound, a metabolite of a polyphenolic compound which is obtained by metabolization in the human or animal body, a salt of a polyphenolic compound, a glycoside of a polyphenolic compound, or derivative of these compounds. So, concentrations of said compound correspond to measured solubility after 1 hour stirring at room temperature. Concentration is measured in a PTF of the invention. So, BCA can be dissolved in water. Other ingredients of a PTF, which are mentioned in this description, are preferably present. If not specifically indicated, or if not specifically indicated otherwise, the time of stirring is one hour. In some cases, other stirring times are indicated, such as 12 hours.

[4] = Example 4, PD-Solution #3, 72 hours, 3 replicates per concentration
[5] = Example 4, PD-Solution #4, 72 hours, 3 replicates per concentration
[6] = Example 2, PD-Solution #1, 48 hours, 9 dilutions, Cmax=500 μM
[7] = Example 2, PD-Solution #2, 48 hours, 9 dilutions, Cmax=500 μM

Structure (SMILES): O=C(O)/C=C/c1ccc(O)c(O)c1 [Cafeic Acid, caffeic acid]
- improvement of cell viability of HPMC cells (resazurin to resorufin conversion) [1, 4]: up to 32%
- improvement of cell viability of HPMC cells (resazurin to resorufin conversion) [1, 5]: minor
- type of dialysis solution mainly improved [1]: mainly improved Icodextrin based dialysis solutions

Structure (SMILES): Oc1cc(O)c2cc(O)c(-c3cc(O)c(O)c(O)c3)[o+]c2c1 [Delphinidin]
- improvement of cell viability of HPMC cells (resazurin to resorufin conversion) [1, 4]: up to 57%

Structure (SMILES): O=c1cc(-c2ccc(O)c(O)c2)oc2cc(O)cc(O)c12 [Luteolin]
- improvement of cell viability of HPMC cells (resazurin to resorufin conversion) [1, 4]: up to 56%
- improvement of cell viability of HPMC cells (resazurin to resorufin conversion) [1, 5]: up to 21%
- type of dialysis solution mainly improved [1]: mainly improved Icodextrin based dialysis solutions

Structure (SMILES): Oc1cc(O)cc(/C=C/c2ccc(O)c(O)c2)c1 [Piceatannol]
- improvement of cell viability of HPMC cells (resazurin to resorufin conversion) [1, 4]: up to 44%
- improvement of cell viability of HPMC cells (resazurin to resorufin conversion) [1, 5]: up to 40%

Structure (SMILES): OC[C@H]1O[C@@H](Oc2cc(O)cc(/C=C/c3ccc(O)cc3)c2)[C@H](O)[C@@H](O)[C@@H]1O [Piceid, resveratrol-3-O-β-mono-D-glucoside]
- improvement of viability of HPMC cells measured by ATP-level re-establishment [2]: 51%
- effect on cell viability in control medium ([1]; Example 2, 48 hours): no significant effect
- improvement of cell viability of HPMC cells (resazurin to resorufin conversion) [1, 6]: minor improvements
- improvement of cell viability of HPMC cells (resazurin to resorufin conversion) [1, 7]: minor improvements
- effect reducing cyto-toxicity of all three tested peritoneal dialysis solutions ([1]; 48 hours): minor effect
- improvement of cell viability of HPMC cells (resazurin to resorufin conversion) [1, 4]: up to 32%
- improvement of cell viability of HPMC cells (resazurin to resorufin conversion) [1, 5]: up to 17%
- cell viability on Glucose based and on Icodextrin based PD-Solutions [1]: increased cell viability

Structure (SMILES): COc1cc(/C=C/c2ccc(O)cc2)cc(OC)c1 [Pterostilbene]
- improvement of cell viability of HPMC cells (resazurin to resorufin conversion) [1, 4]: 183%
- improvement of cell viability of HPMC cells (resazurin to resorufin conversion) [1, 5]: 118%

Structure (SMILES): Oc1ccc(/C=C/c2cc(O)cc(O)c2)cc1 [Resveratrol, trans-3,5,4′-trihydroxystilbene]
- VEGF concentration (pg/mL) in prot. prep., Average (VEGF; Sol #4 + 40 μM Resveratrol, 2 and 4 weeks combined, 10 rats): 60.94 pg/mL
- VEGF concentration (pg/mL) in prot. prep., single animals (VEGF; Sol #4 + 40 μM Resveratrol, 2 weeks treatment): 50.21 pg/mL and 39.99 pg/mL and 70.88 pg/mL and 77.84 pg/mL and 60.12 pg/mL
- VEGF concentration (pg/mL) in prot. prep., single animals (VEGF; Sol #4 + 40 μM Resveratrol, 4 weeks treatment): 62.02 pg/mL and 63.71 pg/mL and 57.91 pg/mL and 68.45 pg/mL and 58.23 pg/mL
- expression of VEGF in the peritoneum of standard PDF treated rats (VEGF; addition to Sol #4, 2 to 4 weeks peritoneal dialysis): decreases expression of VEGF
- concentration after 12 hours stirring [3]: above 24 mg/L
- effect on cell viability in control medium ([1]; Example 2, 48 hours): no significant effect
- improvement of cell viability of HPMC cells (resazurin to resorufin conversion) [1, 6]: up to 20%
- improvement of cell viability of HPMC cells (resazurin to resorufin conversion) [1, 7]: up to 40%
- improvement of cell viability of HPMC cells (resazurin to resorufin conversion) ([1]; Example 2, PD-Solution #3, 48 hours, 9 dilutions, Cmax=500 μM): up to 40%
- effect reducing cyto-toxicity of all three tested peritoneal dialysis solutions ([1]; 48 hours): strong effect
- improvement of viability of HPMC cells (resazurin to resorufin conversion) ([1]; PD-Solution #1, 72 hours, Cmax=500 μM): up to 84%
- improvement of viability of HPMC cells (resazurin to resorufin conversion) ([1]; PD-Solution #2, 72 hours, Cmax=500 μM): up to 28%
- improvement of viability of HPMC cells (resazurin to resorufin conversion) ([1]; PD-Solution #3, 72 hours, Cmax=500 μM): up to 105%
- cell viability on Glucose based and on Icodextrin based PD-Solutions [1]: increased cell viability
